Data from patent US4136116A, “Tricyclic compounds” (Hoffmann-La Roche Inc., priority 1975, dated 1979).
Where a name gives a salt, the structure may show the parent alone.

What follows are compounds tested on salivation in rabbits (assay: Salivation inhibition in rabbits (pilocarpine-increased salivation; anticholinergic action)). Conditions: light urethane narcosis, 3 mg/kg i.v., pilocarpine 5 mg/kg s.c.
Assay type: in vivo
Method: The low anticholinergic action can be shown by the lack of salivation inhibition in rabbits: The salivation in rabbits under light urethane narcosis was increased by pilocarpine injection (5 mg/kg. s.c.) and the amount of saliva was measured at 5-minute intervals. The inhibition of salivation is expressed as a percentage based upon the salivation of animals which only received pilocarpine.

SMILES | % Inhibition of Salivation [%]
Cc1cccc2c1C=Cc1ccccc1C2=CCC[N+](C)(C)[O-] [1-methyl-5-(3-dimethylaminopropylidene)-5H-dibenzo[a,d]cycloheptene N-oxide hydrochloride] | 14
Cc1cccc2c1C=Cc1ccccc1C2=CCCN(C)C.Cl [1-methyl-5-(3-dimethylaminopropylidene)-5H-dibenzo[a,d]cycloheptene hydrochloride] | 60
CNCCC=C1c2ccccc2C=Cc2c(C)cccc21.Cl [1-methyl-5-(3-methylaminopropylidene)-5H-dibenzo[a,d]cycloheptene hydrochloride] | 60

The next lines start with the values.

% Inhibition of Salivation [%] | SMILES
50 | Cc1cccc2c1CCc1ccccc1C2CCCN(C)C.Cl (stereo not shown) [1-methyl-10,11-dihydro-5-(3-dimethylaminopropyl)-5H-dibenzo[a,d]cycloheptene hydrochloride]
50 | Cc1cccc2c1CCc1ccccc1C2=CCCN(C)C.Cl [1-methyl-10,11-dihydro-5-(3-dimethylaminopropylidene)-5H-dibenzo[a,d]cycloheptene hydrochloride]
40 | CNCCCC1c2ccccc2CCc2c(C)cccc21.Cl (stereo not shown) [1-methyl-10,11-dihydro-5-(3-methylaminopropyl)-5H-dibenzo[a,d]cycloheptene hydrochloride]
50 | CNCCC=C1c2ccccc2CCc2c(C)cccc21.Cl [1-methyl-10,11-dihydro-5-(3-methylaminopropylidene)-5H-dibenzo [a,d]cycloheptene hydrochloride]
